Test results published in patent publication US10537541B2, “Treatment of focal segmental glomerular sclerosis (FSGS) using therapeutically effective oral doses of 10-nitro-9(E)-octadec-9-enoic acid” (Complexa, Inc., priority 2015, dated 2020).
“Also recorded” adds a separate entry of the source. Like-named read-outs stand apart in the source and are kept apart here.

Experiments:
[1] = tested on: rat model of renal ischemia/reperfusion; assay: Rat model of renal ischemia/reperfusion (acute kidney injury); type: in vivo; settings: rats
Experimental: Prevention of ischemic reperfusion injury: Studies were performed to test the effectiveness and the dose/exposure-response relationship of 10-nitro-9(E)-octadec-9-enoic acid in reducing acute kidney injury in a rat model of renal ischemia/reperfusion when administered prior to the insult. A well-established and reproducible rat model of contrast-induced nephropathy was not available. Because ischemic/reperfusion injury is a facet of contrast-induced nephropathy, it was considered a reasonable alternative. In this model, the renal arteries of the rat were clamped for 35 min, followed by reperfusion. Serum creatinine was measured daily for 72 hours. The animals were then sacrificed for tissue and terminal plasma. 10-nitro-9(E)-octadec-9-enoic acid was administered over 15 min intravenously at various doses at one hour prior to the injury. […]
10-nitro-9(E)-octadec-9-enoic acid (2.5, 12.5, and 25 mg/kg) was administered 1 hr prior to the ischemic event. Plasma samples were taken at 0, 24, 48, and 72 hr following the ischemic event, and serum creatinine levels were measured in batches using mass spectrometry to achieve precision in the results.

[2] = Multiple ascending dose study in obese males: pharmacokinetics; type: in vivo, human; settings: for plasma concentration Day 21 / plasma concentration Day 28: after 14 days dosing; for Tmax: male, human, plasma, oral, 450 mg, read-out: Median Tmax
From the text: (§1) The primary endpoints of this study included safety and tolerability, pharmacokinetics, and biomarkers. The safety and tolerability included physical examinations, adverse event (AE) reporting, vital signs (blood pressure, heart rate, respiratory rate), clinical laboratory values (hematology, biochemistry, and urinalysis) including serum magnesium and creatine phosphokinase (CPK), 12-lead electrocardiograms (ECGs) for safety assessments and QTcF measured on ECGs extracted from cardiac Holter monitoring. The pharmacokinetic measurements included maximum observed plasma drug concentration (Cmax), time to maximum plasma drug concentration (Tmax), terminal phase half-life (t½), area under the plasma drug concentration versus time curve (AUC0-last, AUC0-∞), clearance (CL/F), volume of distribution (Vd/F) and terminal elimination rate constant (λz).
(§2) This was a single-center, randomized, double-blind, placebo-controlled study of sequential multiple ascending doses of oral CXA-10 in obese male subjects. Eligible subjects included obese males age 19 to 57 years and BMI 27.0 to 39.5 kg/m^2. CXA-10 and placebo were provided as solutions in hard shell capsules. Three (3) cohorts of subjects were dosed once daily with CXA-10 for 14 days. The doses administered in this study were 25, 150 and 450 mg. Subjects enrolled in the highest dose level (450 mg) were administered 600 mg on day 1 then 450 mg for 13 days. This cohort (cohort 3) was given the option to receive an additional 450 mg dose on day 15 with a high fat (50%) breakfast.
(§3) Subjects remained at the unit until discharge on Day 15 after assessments were completed and reviewed. […] They remained in the unit until Day 16 (24 h after last dose on Day 15) before being discharged from the unit. The additional procedures on Day 15 and Day 16 were optional for subjects in cohort 3.
Full PK profiles were obtained on Days 1 and 14. For subjects in cohort 3 who participate in the additional procedures on Day 15, full PK profiles were obtained on Days 1, 14, and 15. An abbreviated PK profile could also be obtained for the highest dose cohort only on one additional day. The actual day of PK sampling coincided with the additional day of Holter monitoring for the highest dose cohort. Subjects returned on Day 21 and Day 28 for PK, safety, and biomarker assessments.

obese male subjects = assay: Multiple ascending dose study in obese males: safety and tolerability; type: in vivo, human; settings: for GI adverse events, number (percentage) of subjects / General Disorders adverse events, number (percentage) of subjects / Muscle and CT disorders adverse events, number (percentage) of subjects / Nervous System adverse events, number (percentage) of subjects / Skin and SQ disorders adverse events, number (percentage) of subjects: n = 10
From the text: as §1, §2
Each cohort of subjects was randomized to receive CXA-10 (10 subjects) or placebo (4 or 5 subjects). Safety, pharmacokinetic (PK) and pharmacodynamic (PD) assessments were evaluated throughout the study. The last study visit occurred on Day 28. All subjects remained in the unit during the treatment period and were discharged approximately 24 hours after the last dose was administered. Food restrictions were incorporated to minimize variability in biomarker evaluation and body weight.
as §3
Safety and tolerability was evaluated throughout the study. Continuous Holter monitoring was performed on Days −1 and on Day 14 in all three cohorts. Continuous Holter monitoring could also be performed at highest dose cohort on an additional day between Days 2 and 4. The decision to conduct Holter monitoring and the actual day of the additional monitoring was determined based on emerging data.

[3] = cohort 3, day 15 with high fat (50%) breakfast versus fasted
[4] = Cohort 1, 25 mg once daily 14 days
[5] = Cohort 2, 150 mg once daily 14 days
[6] = Cohort 3, 450 mg once daily (600 mg on day 1)
[7] = obese males, 25-450 mg once daily

plasma concentration Day 21 ([2]; 25 mg cohort): 0.17 ng/mL | plasma concentration Day 28 ([2]; 25 mg cohort): 0 ng/mL | plasma concentration Day 21 ([2]; 150 mg cohort): 0.33 ng/mL | plasma concentration Day 28 ([2]; 150 mg cohort): (0.39 ng/mL | plasma concentration Day 21 ([2]; 450 mg cohort): 0.38 ng/mL | plasma concentration Day 28 ([2]; 450 mg cohort): 0.30 ng/mL | increase of AUC under fed conditions [2, 3]: about 1.7 fold | increase of Cmax under fed conditions [2, 3]: about 2 fold | Tmax ([2]; fasted conditions): 3 h | Tmax ([2]; fed conditions (high fat breakfast)): 6 h
SMILES: CCCCCCCC/C(=C\CCCCCCCC(=O)O)[N+](=O)[O-] [CXA-10, 10-nitro-9(E)-octadec-9-enoic acid]
renal structural injury (periodic acid-Schiff staining, blinded scoring) ([1]; 12.5 mg/kg intravenously 1 hr prior to I/R injury): alleviation of injury; also recorded: preserved normal renal structure | serum creatinine following ischemia ([1]; 12.5 mg/kg intravenously 1 hr prior to ischemic event, 24 hr, p<0.01 at 24 hr only): statistically significant decrease; also recorded: significantly lowered | pharmacokinetics profiles (dose proportionality, accumulation) ([2]; 25, 150, 450 mg once daily, day 1 and day 14): dose proportional concentration-times with minimal accumulation | HBG, HCT and RBC concentration during treatment compared to placebo treated subjects (obese male subjects; 450 mg): slight decrease | GI related AEs: subjects with nausea (obese male subjects; Cohort 1 (25 mg)): 1 subject had nausea subjects | GI adverse events, number (percentage) of subjects (obese male subjects; [4]): 2 (20%) | General Disorders adverse events, number (percentage) of subjects (obese male subjects; [4]): 1 (10%) | Muscle and CT disorders adverse events, number (percentage) of subjects (obese male subjects; [4]): 2 (20%) | Nervous System adverse events, number (percentage) of subjects (obese male subjects; [4]): 0 (0%) | Skin and SQ disorders adverse events, number (percentage) of subjects (obese male subjects; [4]): 2 (20%) | GI related AEs: subjects with diarrhea (obese male subjects; Cohort 2 (150 mg)): 5 subjects had diarrhea: 1 subject had diarrhea ~2 hr | GI adverse events, number (percentage) of subjects (obese male subjects; [5]): 5 (50%) | General Disorders adverse events, number (percentage) of subjects (obese male subjects; [5]): 0 (0%) | Muscle and CT disorders adverse events, number (percentage) of subjects (obese male subjects; [5]): 0 (0%) | Nervous System adverse events, number (percentage) of subjects (obese male subjects; [5]): 1 (10%) | Skin and SQ disorders adverse events, number (percentage) of subjects (obese male subjects; [5]): 0 (0%) | GI related AEs: subjects with diarrhea (obese male subjects; Cohort 3 (450 mg w food)): 3 subjects | GI related AEs: subjects with nausea (obese male subjects; Cohort 3 (450 mg w food)): 1 subjects | GI related AEs: subjects with diarrhea (obese male subjects; Cohort 3 (450 mg)): 9 subjects | GI related AEs: subjects with nausea (obese male subjects; Cohort 3 (450 mg)): 4 subjects | GI adverse events, number (percentage) of subjects (obese male subjects; [6]): 9 (90%) | General Disorders adverse events, number (percentage) of subjects (obese male subjects; [6]): 3 (30%) | Muscle and CT disorders adverse events, number (percentage) of subjects (obese male subjects; [6]): 2 (20%) | Nervous System adverse events, number (percentage) of subjects (obese male subjects; [6]): 4 (40%) | Skin and SQ disorders adverse events, number (percentage) of subjects (obese male subjects; [6]): 1 (10%) | CPK (muscle enzyme) or magnesium serum levels (obese male subjects; [7]): no abnormalities | QTc interval (routine ECG after dosing for 15 days; ECG extraction from continuous 24-hour Holter monitoring) (obese male subjects; [7]): no prolongation of QTc interval | clinical laboratory, vital signs or ECG evaluations (obese male subjects; [7]): no clinically significant findings | time to resolution of diarrhea (obese male subjects; obese males, oral once daily): ≤ 4 h | intensity of diarrhea (grade) (obese male subjects; obese males, did not worsen with increasing dose): grade 1 or 2
